From patent publication US20240277636A1, “COMBINATION COMPRISING AT LEAST ONE SEROTONIN REUPTAKE INHIBITOR AND AT LEAST ONE STIMULATOR OF POTASSIUM-CHLORIDE COTRANSPORTER TYPE 2 AND ITS MEDICAL USE” (Université de Bordeaux, priority 2021, published 2024)

Test system: neuropathic mice
Settings: conditioned 1 h 30 after injection, post- versus pre-conditioning, result in words
Experimental: 14 days after mice are free to explore during 10 minutes, a 2-chamber arena separated by a narrow corridor. A camera placed above the device allows tracking of mice movements. […] 1 H 30 after injection of either fluoxetine alone or combination of fluoxetine and CLP290, mice are restricted to one chamber during 10 minutes. 2 days after mice are put again and free to explore the entire arena. […] As control experiment, the same procedure is performed in neuropathic mice with fluoxetine and CLP290 vehicle.

In the case of `CNCCC(Oc1ccc(C(F)(F)F)cc1)c1ccccc1` (stereo not shown) [fluoxetine], the “time spent in the conditioned chamber (CPP)” value is reported as “not”.
